Experimental data published in the kinase profiling compilation of Christmann-Franck et al. (2016).

How the values were obtained:
Assay in all cases: radiometric filter-binding kinase assay, Kinase HotSpot
Settings in all cases: compound 0.5 µM; ATP 10 µM
LRRK2 (human) = LRRK2 (human) (UniProt Q5S007)
NEK4 (human) = NEK4 (human) (UniProt P51957)
EPHB2 (human) = EPHB2 (human) (UniProt P29323)
NTRK2 (human) = NTRK2 (human) (UniProt Q16620)
MAPK1 (human) = MAPK1 (human) (UniProt P28482)
TTK (human) = TTK (human) (UniProt P33981)
STK39 (human) = STK39 (human) (UniProt Q9UEW8)
ERBB2 (human) = ERBB2 (human) (UniProt P04626)
VRK1 (human) = VRK1 (human) (UniProt Q99986)
TXK (human) = TXK (human) (UniProt P42681)
CLK2 (human) = CLK2 (human) (UniProt P49760)
PAK2 (human) = PAK2 (human) (UniProt Q13177)
SRPK1 (human) = SRPK1 (human) (UniProt Q96SB4)
CLK3 (human) = CLK3 (human) (UniProt P49761)
CAMK1 (human) = CAMK1 (human) (UniProt Q14012)
PRKX (human) = PRKX (human) (UniProt P51817)
CLK1 (human) = CLK1 (human) (UniProt P49759)
ALK (human) = ALK (human) (UniProt Q9UM73)
JAK3 JH1 JH2 (human) = JAK3 JH1 JH2 (human) (UniProt P52333)
IRAK1 (human) = IRAK1 (human) (UniProt P51617)
MKNK2 (human) = MKNK2 (human) (UniProt Q9HBH9)
HIPK1 (human) = HIPK1 (human) (UniProt Q86Z02)
ERBB4 (human) = ERBB4 (human) (UniProt Q15303)
TBK1 (human) = TBK1 (human) (UniProt Q9UHD2)
MAP3K7 TAB1 (human) = MAP3K7 TAB1 (human) (UniProt O43318+Q15750)
CHUK (human) = CHUK (human) (UniProt O15111)
DYRK4 (human) = DYRK4 (human) (UniProt Q9NR20)
JAK2 JH1 JH2 (human) = JAK2 JH1 JH2 (human) (UniProt O60674)
CDK4 CCND1 (human) = CDK4 CCND1 (human) (UniProt P24385+P11802)
MLTK (human) = MLTK (human) (UniProt Q9NYL2)
MAP3K11 (human) = MAP3K11 (human) (UniProt Q16584)
PDPK1 (human) = PDPK1 (human) (UniProt O15530)
PTK6 (human) = PTK6 (human) (UniProt Q13882)
PLK2 (human) = PLK2 (human) (UniProt Q9NYY3)
DYRK1A (human) = DYRK1A (human) (UniProt Q13627)
CSNK1G1 (human) = CSNK1G1 (human) (UniProt Q9HCP0)
PAK3 (human) = PAK3 (human) (UniProt O75914)
TAOK2 (human) = TAOK2 (human) (UniProt Q9UL54)
MAP2K1 (human) = MAP2K1 (human) (UniProt Q02750)
PRKD2 (human) = PRKD2 (human) (UniProt Q9BZL6)
RPS6KA4 KD2 (human) = RPS6KA4 KD2 (human) (UniProt O75676)
MARK3 (human) = MARK3 (human) (UniProt P27448)

CLK1 (human), sequence (P49759 whole entry, looked up): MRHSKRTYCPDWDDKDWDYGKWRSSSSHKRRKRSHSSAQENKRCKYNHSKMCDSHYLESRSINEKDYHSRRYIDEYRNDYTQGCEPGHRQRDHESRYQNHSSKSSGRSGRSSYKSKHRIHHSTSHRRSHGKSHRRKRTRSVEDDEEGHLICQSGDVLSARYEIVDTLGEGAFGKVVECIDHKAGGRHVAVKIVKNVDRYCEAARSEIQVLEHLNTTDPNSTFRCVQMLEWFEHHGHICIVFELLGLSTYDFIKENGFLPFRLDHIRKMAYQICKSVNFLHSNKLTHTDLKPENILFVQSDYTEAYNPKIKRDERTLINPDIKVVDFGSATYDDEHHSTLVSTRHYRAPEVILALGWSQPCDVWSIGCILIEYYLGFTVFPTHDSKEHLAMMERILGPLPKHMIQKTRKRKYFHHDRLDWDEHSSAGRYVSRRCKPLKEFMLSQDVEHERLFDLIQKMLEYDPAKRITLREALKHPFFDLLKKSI
JAK3 JH1 JH2 (human), sequence (P52333 whole entry, looked up): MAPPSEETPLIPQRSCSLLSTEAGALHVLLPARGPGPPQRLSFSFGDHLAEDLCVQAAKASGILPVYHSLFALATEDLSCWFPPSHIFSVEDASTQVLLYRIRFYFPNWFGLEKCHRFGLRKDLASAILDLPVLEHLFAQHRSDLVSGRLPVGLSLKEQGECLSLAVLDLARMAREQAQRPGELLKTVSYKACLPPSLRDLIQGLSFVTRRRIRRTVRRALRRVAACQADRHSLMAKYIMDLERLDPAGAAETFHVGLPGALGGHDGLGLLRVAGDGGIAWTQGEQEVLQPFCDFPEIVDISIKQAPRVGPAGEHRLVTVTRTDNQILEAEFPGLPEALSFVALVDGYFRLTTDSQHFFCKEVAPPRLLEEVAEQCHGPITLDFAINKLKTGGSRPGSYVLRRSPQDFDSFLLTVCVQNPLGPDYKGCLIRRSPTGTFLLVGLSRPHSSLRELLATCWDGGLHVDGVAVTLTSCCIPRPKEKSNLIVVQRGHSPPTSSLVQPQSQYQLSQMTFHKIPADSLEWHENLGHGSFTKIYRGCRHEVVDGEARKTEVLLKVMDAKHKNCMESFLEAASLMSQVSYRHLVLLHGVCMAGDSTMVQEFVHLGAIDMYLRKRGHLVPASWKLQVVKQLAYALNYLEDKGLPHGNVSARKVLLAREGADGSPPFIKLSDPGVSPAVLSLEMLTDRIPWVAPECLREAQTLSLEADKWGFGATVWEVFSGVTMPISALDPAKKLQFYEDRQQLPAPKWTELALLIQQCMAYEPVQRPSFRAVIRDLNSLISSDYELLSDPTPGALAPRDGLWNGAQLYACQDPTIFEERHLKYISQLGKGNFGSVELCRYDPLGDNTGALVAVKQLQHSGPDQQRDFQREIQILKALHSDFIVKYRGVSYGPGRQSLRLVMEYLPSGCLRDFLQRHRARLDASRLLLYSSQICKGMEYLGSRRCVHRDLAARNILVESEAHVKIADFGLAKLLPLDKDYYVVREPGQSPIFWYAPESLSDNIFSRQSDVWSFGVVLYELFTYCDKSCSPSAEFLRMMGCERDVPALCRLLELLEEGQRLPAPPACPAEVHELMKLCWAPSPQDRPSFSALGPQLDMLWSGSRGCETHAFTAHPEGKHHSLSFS
PRKD2 (human), sequence (Q9BZL6 whole entry, looked up): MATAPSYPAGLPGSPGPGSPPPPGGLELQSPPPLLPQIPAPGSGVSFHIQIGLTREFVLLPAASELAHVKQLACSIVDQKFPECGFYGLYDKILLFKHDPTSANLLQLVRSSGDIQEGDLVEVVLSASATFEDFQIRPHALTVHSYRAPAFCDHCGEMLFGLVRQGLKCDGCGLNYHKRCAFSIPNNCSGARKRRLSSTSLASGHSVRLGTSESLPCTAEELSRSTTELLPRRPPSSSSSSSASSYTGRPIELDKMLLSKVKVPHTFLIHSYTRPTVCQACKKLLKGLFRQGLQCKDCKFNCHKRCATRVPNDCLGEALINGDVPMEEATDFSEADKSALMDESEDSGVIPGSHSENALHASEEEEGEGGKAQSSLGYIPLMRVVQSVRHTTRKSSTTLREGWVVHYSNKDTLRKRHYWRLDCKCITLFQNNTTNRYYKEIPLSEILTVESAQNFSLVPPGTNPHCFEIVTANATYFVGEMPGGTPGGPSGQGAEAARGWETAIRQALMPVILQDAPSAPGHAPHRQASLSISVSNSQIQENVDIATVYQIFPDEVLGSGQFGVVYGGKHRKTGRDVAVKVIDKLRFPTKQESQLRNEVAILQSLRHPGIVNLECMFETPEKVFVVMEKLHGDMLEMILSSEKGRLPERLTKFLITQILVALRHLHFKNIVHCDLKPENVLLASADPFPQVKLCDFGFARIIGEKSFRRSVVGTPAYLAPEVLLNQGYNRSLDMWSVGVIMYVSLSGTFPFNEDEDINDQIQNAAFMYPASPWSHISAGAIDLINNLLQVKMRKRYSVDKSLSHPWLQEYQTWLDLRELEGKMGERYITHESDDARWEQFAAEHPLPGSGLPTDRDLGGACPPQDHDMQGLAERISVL
HIPK1 (human), sequence (Q86Z02 whole entry, looked up): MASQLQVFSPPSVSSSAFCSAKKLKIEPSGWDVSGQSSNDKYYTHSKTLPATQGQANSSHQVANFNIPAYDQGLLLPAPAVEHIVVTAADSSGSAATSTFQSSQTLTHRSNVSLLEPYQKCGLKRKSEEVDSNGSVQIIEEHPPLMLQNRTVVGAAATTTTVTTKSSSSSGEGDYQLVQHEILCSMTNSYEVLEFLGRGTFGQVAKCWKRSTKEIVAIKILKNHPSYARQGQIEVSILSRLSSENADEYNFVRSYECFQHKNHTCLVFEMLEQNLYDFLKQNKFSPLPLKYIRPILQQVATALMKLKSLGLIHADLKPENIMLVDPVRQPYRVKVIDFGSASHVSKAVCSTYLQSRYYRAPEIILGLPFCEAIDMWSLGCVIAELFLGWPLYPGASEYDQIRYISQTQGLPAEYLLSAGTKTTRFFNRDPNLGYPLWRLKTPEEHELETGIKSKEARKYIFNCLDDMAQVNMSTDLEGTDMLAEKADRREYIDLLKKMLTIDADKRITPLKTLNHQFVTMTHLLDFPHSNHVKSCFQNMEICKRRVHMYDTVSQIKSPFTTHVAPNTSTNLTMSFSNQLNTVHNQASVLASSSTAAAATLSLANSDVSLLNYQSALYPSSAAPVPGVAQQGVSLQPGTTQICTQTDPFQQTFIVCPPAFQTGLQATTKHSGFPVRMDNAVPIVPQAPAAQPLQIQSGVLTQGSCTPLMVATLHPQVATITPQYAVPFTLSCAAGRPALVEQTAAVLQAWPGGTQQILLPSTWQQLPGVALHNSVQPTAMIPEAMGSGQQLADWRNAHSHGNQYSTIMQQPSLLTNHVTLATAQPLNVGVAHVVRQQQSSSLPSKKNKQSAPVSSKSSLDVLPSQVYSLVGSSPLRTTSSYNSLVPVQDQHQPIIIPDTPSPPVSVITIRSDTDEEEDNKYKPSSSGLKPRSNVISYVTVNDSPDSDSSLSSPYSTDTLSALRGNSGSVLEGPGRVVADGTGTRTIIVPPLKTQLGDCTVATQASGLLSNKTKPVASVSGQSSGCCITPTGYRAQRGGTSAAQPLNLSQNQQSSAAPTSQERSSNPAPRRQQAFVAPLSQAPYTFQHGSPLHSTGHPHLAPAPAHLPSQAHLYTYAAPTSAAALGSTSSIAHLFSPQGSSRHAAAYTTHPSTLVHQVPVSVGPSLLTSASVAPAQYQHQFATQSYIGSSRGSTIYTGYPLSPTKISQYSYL
ERBB2 (human), sequence (P04626 whole entry, looked up): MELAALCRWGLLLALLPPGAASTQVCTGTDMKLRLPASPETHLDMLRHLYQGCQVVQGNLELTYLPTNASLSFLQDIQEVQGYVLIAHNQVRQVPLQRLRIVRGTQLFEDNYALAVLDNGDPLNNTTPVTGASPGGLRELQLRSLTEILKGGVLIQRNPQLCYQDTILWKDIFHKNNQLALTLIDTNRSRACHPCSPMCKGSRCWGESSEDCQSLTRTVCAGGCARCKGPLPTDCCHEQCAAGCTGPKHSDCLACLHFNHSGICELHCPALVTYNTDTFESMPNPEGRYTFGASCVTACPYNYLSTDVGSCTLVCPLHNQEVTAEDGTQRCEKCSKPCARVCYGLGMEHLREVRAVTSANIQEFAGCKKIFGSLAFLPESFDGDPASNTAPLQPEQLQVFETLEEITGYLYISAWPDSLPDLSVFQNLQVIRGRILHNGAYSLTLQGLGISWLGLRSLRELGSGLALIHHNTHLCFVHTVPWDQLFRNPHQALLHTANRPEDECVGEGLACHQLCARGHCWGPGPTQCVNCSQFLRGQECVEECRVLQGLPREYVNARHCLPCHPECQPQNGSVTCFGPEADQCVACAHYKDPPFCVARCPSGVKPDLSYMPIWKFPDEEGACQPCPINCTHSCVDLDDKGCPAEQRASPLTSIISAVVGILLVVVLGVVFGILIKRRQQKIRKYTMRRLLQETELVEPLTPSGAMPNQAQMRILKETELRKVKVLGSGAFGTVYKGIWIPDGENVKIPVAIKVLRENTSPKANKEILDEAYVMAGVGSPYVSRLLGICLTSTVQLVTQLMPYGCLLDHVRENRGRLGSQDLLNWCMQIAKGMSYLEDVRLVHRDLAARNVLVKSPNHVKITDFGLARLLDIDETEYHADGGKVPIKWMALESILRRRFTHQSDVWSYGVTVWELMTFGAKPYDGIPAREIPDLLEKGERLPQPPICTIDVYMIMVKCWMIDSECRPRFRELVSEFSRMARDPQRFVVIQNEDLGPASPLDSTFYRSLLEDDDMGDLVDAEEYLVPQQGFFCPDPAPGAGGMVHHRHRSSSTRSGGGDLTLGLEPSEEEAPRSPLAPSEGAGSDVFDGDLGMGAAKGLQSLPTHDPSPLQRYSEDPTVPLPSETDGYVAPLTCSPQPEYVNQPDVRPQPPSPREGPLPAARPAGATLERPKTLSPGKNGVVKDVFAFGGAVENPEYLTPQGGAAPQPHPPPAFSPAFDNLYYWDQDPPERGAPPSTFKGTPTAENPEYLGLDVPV

CC[n+]1c(/C=C/N(C)c2ccccc2)n(-c2ccccc2)c2ccc(-c3nc4ccccc4s3)cc21
residual activity (LRRK2 (human)): 95.5% | residual activity (NEK4 (human)): 90.5% | residual activity (EPHB2 (human)): 99.1% | residual activity (NTRK2 (human)): 97.8% | residual activity (MAPK1 (human)): 112% | residual activity (TTK (human)): 96.6% | residual activity (STK39 (human)): 81.1% | residual activity (ERBB2 (human)): 92% | residual activity (VRK1 (human)): 90.9% | residual activity (TXK (human)): 107% | residual activity (CLK2 (human)): 98.4% | residual activity (PAK2 (human)): 97.3% | residual activity (SRPK1 (human)): 105% | residual activity (CLK3 (human)): 114% | residual activity (CAMK1 (human)): 94.4% | residual activity (PRKX (human)): 108% | residual activity (CLK1 (human)): 108% | residual activity (ALK (human)): 99.1% | residual activity (JAK3 JH1 JH2 (human)): 106% | residual activity (IRAK1 (human)): 102% | residual activity (MKNK2 (human)): 97.4% | residual activity (HIPK1 (human)): 99.5% | residual activity (ERBB4 (human)): 102% | residual activity (TBK1 (human)): 95.7% | residual activity (MAP3K7 TAB1 (human)): 98.8% | residual activity (CHUK (human)): 86% | residual activity (DYRK4 (human)): 107% | residual activity (JAK2 JH1 JH2 (human)): 98.8% | residual activity (CDK4 CCND1 (human)): 107% | residual activity (MLTK (human)): 93.8% | residual activity (MAP3K11 (human)): 102% | residual activity (PDPK1 (human)): 103% | residual activity (PTK6 (human)): 90.2% | residual activity (PLK2 (human)): 93.1% | residual activity (DYRK1A (human)): 96.7% | residual activity (CSNK1G1 (human)): 104% | residual activity (PAK3 (human)): 109% | residual activity (TAOK2 (human)): 97.7% | residual activity (MAP2K1 (human)): 93.5% | residual activity (PRKD2 (human)): 102% | residual activity (RPS6KA4 KD2 (human)): 94.6% | residual activity (MARK3 (human)): 98.8%

Nc1cccc(-c2cc3c(Oc4cccc(O)c4)ncnc3[nH]2)c1
residual activity (LRRK2 (human)): 93.4% | residual activity (NEK4 (human)): 91.4% | residual activity (EPHB2 (human)): 40.7% | residual activity (NTRK2 (human)): 95.5% | residual activity (MAPK1 (human)): 114% | residual activity (TTK (human)): 104% | residual activity (STK39 (human)): 119% | residual activity (ERBB2 (human)): 76.6% | residual activity (VRK1 (human)): 81.6% | residual activity (TXK (human)): 24.5% | residual activity (CLK2 (human)): 98.8% | residual activity (PAK2 (human)): 88.9% | residual activity (SRPK1 (human)): 107% | residual activity (CLK3 (human)): 74% | residual activity (CAMK1 (human)): 112% | residual activity (PRKX (human)): 114% | residual activity (CLK1 (human)): 93% | residual activity (ALK (human)): 80.9% | residual activity (JAK3 JH1 JH2 (human)): 123% | residual activity (IRAK1 (human)): 91.4% | residual activity (MKNK2 (human)): 67.5% | residual activity (HIPK1 (human)): 82.7% | residual activity (ERBB4 (human)): 75.8% | residual activity (TBK1 (human)): 92.9% | residual activity (MAP3K7 TAB1 (human)): 63% | residual activity (CHUK (human)): 102% | residual activity (DYRK4 (human)): 101% | residual activity (JAK2 JH1 JH2 (human)): 85.4% | residual activity (CDK4 CCND1 (human)): 88.7% | residual activity (MLTK (human)): 13.9% | residual activity (MAP3K11 (human)): 52.4% | residual activity (PDPK1 (human)): 86.8% | residual activity (PTK6 (human)): 11.1% | residual activity (PLK2 (human)): 106% | residual activity (DYRK1A (human)): 103% | residual activity (CSNK1G1 (human)): 102% | residual activity (PAK3 (human)): 79.8% | residual activity (TAOK2 (human)): 81.4% | residual activity (MAP2K1 (human)): 76.3% | residual activity (PRKD2 (human)): 81.7% | residual activity (RPS6KA4 KD2 (human)): 103% | residual activity (MARK3 (human)): 77.5%

CNC(=O)c1cc(Oc2ccc(NC(=O)Nc3ccc(Cl)c(C(F)(F)F)c3)cc2)ccn1
residual activity (LRRK2 (human)): 106% | residual activity (NEK4 (human)): 99.5% | residual activity (EPHB2 (human)): 93.2% | residual activity (NTRK2 (human)): 90% | residual activity (MAPK1 (human)): 101% | residual activity (TTK (human)): 104% | residual activity (STK39 (human)): 95.7% | residual activity (ERBB2 (human)): 103% | residual activity (VRK1 (human)): 99.3% | residual activity (TXK (human)): 106% | residual activity (CLK2 (human)): 92.8% | residual activity (PAK2 (human)): 101% | residual activity (SRPK1 (human)): 98.6% | residual activity (CLK3 (human)): 99.3% | residual activity (CAMK1 (human)): 106% | residual activity (PRKX (human)): 97.7% | residual activity (CLK1 (human)): 97.7% | residual activity (ALK (human)): 97.3% | residual activity (JAK3 JH1 JH2 (human)): 99.4% | residual activity (IRAK1 (human)): 101% | residual activity (MKNK2 (human)): 70.3% | residual activity (HIPK1 (human)): 99.7% | residual activity (ERBB4 (human)): 94.8% | residual activity (TBK1 (human)): 98.6% | residual activity (MAP3K7 TAB1 (human)): 101% | residual activity (CHUK (human)): 99.8% | residual activity (DYRK4 (human)): 105% | residual activity (JAK2 JH1 JH2 (human)): 98.2% | residual activity (CDK4 CCND1 (human)): 96.2% | residual activity (MLTK (human)): 16.7% | residual activity (MAP3K11 (human)): 98.3% | residual activity (PDPK1 (human)): 95.8% | residual activity (PTK6 (human)): 96.9% | residual activity (PLK2 (human)): 101% | residual activity (DYRK1A (human)): 103% | residual activity (CSNK1G1 (human)): 102% | residual activity (PAK3 (human)): 103% | residual activity (TAOK2 (human)): 36.9% | residual activity (MAP2K1 (human)): 102% | residual activity (PRKD2 (human)): 96.2% | residual activity (RPS6KA4 KD2 (human)): 97.7% | residual activity (MARK3 (human)): 103%
